Activity calls are given as the source filed them. No cut-off for these calls is given here.
Assays:
[1] = Binding affinity to [d(T2AG3T)]4 G-quadruplex DNA (unknown origin) containing human telomeric repeat assessed as increase in melting temperature by NMR spectroscopic analysis
[2] = Binding affinity to deoxy(T2G4T)]4 G-quadruplex DNA (unknown origin) assessed as formation of negative induced CD band at 25 uM by […]
[3] = Binding affinity to [d(T2G4T)]4 G-quadruplex DNA (unknown origin) assessed as broadening of G3NH signal by measuring upfield shift at ligand:DNA molar ratio of 2 by 1D 1H NMR method
[4] = Binding affinity to [d(T2G4T)]4 G-quadruplex DNA (unknown origin) assessed as broadening of G6NH signal by measuring upfield shift at ligand:DNA molar ratio of 2 by 1D 1H NMR method
[5] = Binding affinity to [d(T2G4T)]4 G-quadruplex DNA (unknown origin) assessed as upfield shift in G4pG5 signal at ligand:DNA molar ratio of 0.25:1 to 2:1 by 1D 31P NMR method
[6] = Binding affinity to [d(T2G4T)]4 G-quadruplex DNA (unknown origin) assessed as change in intensity of negative band at 242 nanometer by circular dichroism method
[7] = Binding affinity to deoxy(T2G4T)]4 G-quadruplex DNA (unknown origin) assessed as G3NH/G6NH signal by measuring melting temperature by 1H NMR spectroscopy
[8] = Binding affinity to [d(T2G4T)]4 G-quadruplex DNA (unknown origin) assessed as broadening of G4NH signal by measuring upfield shift at ligand:DNA molar ratio of 2 by 1D 1H NMR method
[9] = Binding affinity to [d(T2G4T)]4 G-quadruplex DNA (unknown origin) assessed as downfield shift in T2pG3 signal at ligand:DNA molar ratio of 0.25:1 to 2:1 by 1D 31P NMR method
[10] = Binding affinity to [d(T2G4T)]4 G-quadruplex DNA (unknown origin) assessed as broadening of T2CH3 signal by measuring downfield shift at ligand:DNA molar ratio of 2 by 1D 1H NMR method
[11] = Binding affinity to [d(T2G4T)]4 G-quadruplex DNA (unknown origin) assessed as upfield shift in G5pG6 signal at ligand:DNA molar ratio of 0.25:1 to 2:1 by 1D 31P NMR method
[12] = Binding affinity to [d(T2G4T)]4 G-quadruplex DNA (unknown origin) assessed as formation of 3'-flanking guanine at ligand:DNA molar ratio of 2 by 2D 1H-1H NOESY NMR spectroscopy
[13] = Binding affinity to [d(T2G4T)]4 G-quadruplex DNA (unknown origin) assessed as upfield shift in compound 16OCH3 signal at ligand:DNA molar ratio of 2 by 1D 1H NMR method
[14] = Binding affinity to [d(T2G4T)]4 G-quadruplex DNA (unknown origin) assessed as change in intensity of positive band at 264 nanometer by circular dichroism method
[15] = Binding affinity to [d(T2G4T)]4 G-quadruplex DNA (unknown origin) assessed as broadening of G5NH signal by measuring upfield shift at ligand:DNA molar ratio of 2 by 1D 1H NMR method
[16] = Binding affinity to [d(T2G4T)]4 G-quadruplex DNA (unknown origin) assessed as upfield shift in compound 15OCH3 signal at ligand:DNA molar ratio of 2 by 1D 1H NMR method
[17] = Binding affinity to [d(T2G4T)]4 G-quadruplex DNA (unknown origin) assessed as broadening of T7CH3 signal by measuring downfield shift at ligand:DNA molar ratio of 2 by 1D 1H NMR method
[18] = Binding affinity to [d(T2G4T)]4 G-quadruplex DNA (unknown origin) assessed as diffusion coefficient of H1/H16 proton signal at ligand:DNA molar ratio of 2 by NMR DOSY method (reference value: 5.08 10^-10m2/sec)
[19] = Binding affinity to [d(T2G4T)]4 G-quadruplex DNA (unknown origin) assessed as diffusion coefficient of G3H8 proton signal at ligand:DNA molar ratio of 2 by NMR DOSY method
[20] = Binding affinity to [d(T2G4T)]4 G-quadruplex DNA (unknown origin) assessed as upfield shift in compound 5OCH3 signal at ligand:DNA molar ratio of 2 by 1D 1H NMR method
[21] = Binding affinity to [d(T2G4T)]4 G-quadruplex DNA (unknown origin) assessed as upfield shift in compound 1OCH3 signal at ligand:DNA molar ratio of 2 by 1D 1H NMR method
[22] = Binding affinity to [d(T2G4T)]4 G-quadruplex DNA (unknown origin) assessed as broadening of T7H6 signal by measuring downfield shift at ligand:DNA molar ratio of 2 by 1D 1H NMR method
[23] = Binding affinity to [d(T2G4T)]4 G-quadruplex DNA (unknown origin) assessed as downfield shift in G6pT7 signal at ligand:DNA molar ratio of 0.25:1 to 2:1 by 1D 31P NMR method

O=c1c(O)c(-c2ccc(O)c(O)c2)oc2cc(O)cc(O)c12
ΔTm [1]: 20 °C

Cc1cc2c3c([n+](C)c4ccc(F)cc4c3c1)-c1cc(F)ccc1N2C
ΔTm [1]: 20 °C

COc1cc2cc3c4cc(OC)c(OC)cc4cc[n+]3c(C)c2cc1OC
Activity [2]: Active | Activity [3]: 0.54 ppm | Activity [4]: 0.8 ppm | Activity [5]: 0.12 ppm | Activity [6]: Active | ΔTm [7]: > 20 °C | Activity [8]: 0.37 ppm | Activity [9]: 0.28 ppm | Activity [10]: 0.17 ppm | Activity [11]: 0.12 ppm | Activity [12]: Active | Activity [13]: 0.61 ppm | Activity [14]: Active | Activity [15]: 0.38 ppm | Activity [16]: 0.46 ppm | Activity [17]: 0.22 ppm | D [18]: 3.31 ×10⁻¹⁰ m2/s | D [19]: 3.26 ×10⁻¹⁰ m2/s | Activity [20]: 0.72 ppm | Activity [21]: 0.49 ppm | Activity [22]: 0.33 ppm | Activity [23]: 0.27 ppm

Source: ChEMBL document CHEMBL3853341, “Nuclear magnetic resonance studies reveal stabilization of parallel G-quadruplex DNA [d(T2G4T)]4 upon binding to protoberberine alkaloid coralyne” (Bioorg Med Chem Lett, 2016)
